Reference: ChEMBL document CHEMBL2429833, “A new class of bactericidal agents against S. aureus, MRSA and VRE derived from bisindolylmethane” (Med Chem Res, 2013)
≈ marks a conversion by molar mass, not a printed value. Calls of active or inactive are those of the source. The calls are words filed in the database; no cut-off is given here.

What was measured:
Enterococcus faecalis [1] = experiment: Antibacterial activity against vancomycin-resistant Enterococcus faecalis after 24 hrs by microdilution method; format: functional
Staphylococcus aureus [2] = experiment: Bactericidal activity against Staphylococcus aureus ATCC 29213 after 24 hrs; format: functional; settings: ATCC 29213, 24 h
Enterococcus faecalis [3] = experiment: Bactericidal activity against vancomycin-resistant Enterococcus faecalis after 24 hrs; format: functional
Staphylococcus aureus [4] = experiment: Antibacterial activity against methicillin-resistant Staphylococcus aureus after 24 hrs by microdilution method; format: functional
HeLa = experiment: Cytotoxicity against human HeLa cells after 48 hrs by MTT assay; format: functional, cell-based
Pseudomonas aeruginosa = experiment: Antibacterial activity against Pseudomonas aeruginosa ATCC 27853 after 24 hrs by microdilution method; format: functional, organism-based
Staphylococcus aureus [5] = experiment: Antibacterial activity against Staphylococcus aureus ATCC 29213 after 24 hrs by microdilution method; format: functional; settings: ATCC 29213, 24 h
A549 = experiment: Cytotoxicity against human A549 cells after 48 hrs by MTT assay; format: functional, cell-based
Staphylococcus aureus [6] = experiment: Bactericidal activity against methicillin-resistant Staphylococcus aureus after 24 hrs; format: functional
Escherichia coli = experiment: Antibacterial activity against Escherichia coli ATCC 25922 after 24 hrs by microdilution method; format: functional, organism-based
PC-3 = experiment: Cytotoxicity against human PC3 cells after 48 hrs by MTT assay; format: functional, cell-based

| SMILES | MIC (Enterococcus faecalis [1]) [µg/mL] | MBC (Staphylococcus aureus [2]) [µg/mL] | MBC (Enterococcus faecalis [3]) [µg/mL] | MIC (Staphylococcus aureus [4]) [µg/mL] | IC50 (HeLa) [µM] | Activity (Pseudomonas aeruginosa) | MIC (Staphylococcus aureus [5]) [µg/mL] | IC50 (A549) [µM] | MBC (Staphylococcus aureus [6]) [µg/mL] | Activity (Escherichia coli) | IC50 (PC-3) [µM] |
| --- | --- | --- | --- | --- | --- | --- | --- | --- | --- | --- | --- |
| Fc1ccc(C(c2c[nH]c3ccc(Br)cc23)c2c[nH]c3ccc(Br)cc23)cc1 | 8 (≈ 16.1 µM) | 1 (≈ 2.01 µM) | 16 (≈ 32.1 µM) | 1 (≈ 2.01 µM) | 2.7 | inactive | 1 (≈ 2.01 µM) | 4.5 | 1 (≈ 2.01 µM) | inactive | 3.9 |
| Cn1cc(C(c2ccc(F)cc2)c2cn(C)c3ccc(Br)cc23)c2cc(Br)ccc21 | 8 (≈ 15.2 µM) | 4 (≈ 7.6 µM) | 8 (≈ 15.2 µM) | 8 (≈ 15.2 µM) | 25.4 |  | 4 (≈ 7.6 µM) | 29.4 | 8 (≈ 15.2 µM) |  | 38.9 |
| CCCCCn1cc(C(c2ccc(F)cc2)c2cn(CCCCC)c3ccc(Br)cc23)c2cc(Br)ccc21 | > 128 |  |  | > 128 | 27.2 |  | > 128 | 32.5 |  |  | 40.3 |
